Patent US20260125359A1, “HETEROARYL COMPOUNDS AS MULTI-TARGET PROTEIN KINASE INHIBITORS” (FUJIAN HAIXI PHARMACEUTICALS CO., LTD., priority 2023, published 2026)

tested on: M-NFS-60 cells; experiment: M-NFS-60 cell in vitro assay (CCK, 48 h, M-CSF factor medium); format: cell-based; conditions: M-NFS-60 cells; read-out: M-NFS-60cellassay IC50
In short: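 Mouse M-NFS-60 cells (2000/well) in RPMI-1640 with 10% serum and M-CSF (25 ng/ml) were pre-incubated 4 h, then exposed to DMSO-diluted compound gradients for 48 h at 5% CO2. Viability read by CCK, 2 h, OD 450 nm; IC50 from curve fitting.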

| Compound | IC50 |
| --- | --- |
| CN(c1cnc2cn(C)nc2c1)[C@H]1CCc2c(C(=O)Nc3ccc4c(c3)OC(F)(F)O4)cccc21 [Compound 80u] | < 50 nM |
| COc1cc(NC(=O)c2cccc3c2CC[C@@H]3N(C)c2cnc3cn(C)nc3c2)ccc1F [Compound 80v] | < 50 nM |
| CN1CCc2nc(NC(=O)c3cccc4c3CC[C@@H]4N(C)c3cnc4cnn(C)c4c3)sc2C1 [Compound 80w] | 50 to 200 nM |
| COc1cccc(NC(=O)c2cccc3c2CC[C@@H]3N(C)c2cnc3cnn(C)c3c2)c1F [Compound 80x] | 50 to 200 nM |
| Cc1ccc(F)c(NC(=O)c2cccc3c2CC[C@@H]3N(C)c2cnc3cnn(C)c3c2)c1 [Compound 80y] | < 50 nM |
| Cn1cc2ncc(N[C@H]3CCc4c(NC(=O)c5cccc(C6CC6)c5)cccc43)cc2n1 [Compound 81, (S)-3-cyclopropyl-N-(1-((2-methyl-2H-pyrazolo[4,3-b]pyridin-6-yl)amino)-2,3-dihydro-1H-inden-4-yl)benzamide] | < 50 nM |
| Cc1cccc(C(=O)Nc2cccc3c2CC[C@@H]3Nc2cnc3cn(C)nc3c2)c1F [Compound 82, (S)-2-fluoro-3-methyl-N-(1-((2-methyl-2H-pyrazolo[4,3-b]pyridin-6-yl)amino)-2,3-dihydro-1H-inden-4-yl)benzamide] | < 50 nM |
| Cc1cccc(C(=O)Nc2ccc(F)c3c2CC[C@@H]3Nc2cnc3cn(C)nc3c2)c1F [Compound 83, (S)-2-fluoro-N-(7-fluoro-1-((2-methyl-2H-pyrazolo[4,3-b]pyridin-6-yl)amino)-2,3-dihydro-1H-inden-4-yl)-3-methylbenzamide] | < 50 nM |
| Cc1cccc(NC(=O)c2ccc(F)c3c2CC[C@@H]3Nc2cnc3cn(C)nc3c2)c1F [Compound 84, (S)-7-fluoro-N-(2-fluoro-3-methylphenyl)-1-((2-methyl-2H-pyrazolo[4,3-b]pyridin-6-yl)amino)-2,3-dihydro-1H-indene-4-carboxamide] | < 50 nM |
| Cn1ncc2ncc(O[C@H]3CCc4c(C(=O)Nc5cccc(C6CC6)c5)ccc(F)c43)cc21 [Compound 85, (S)—N-(3-cyclopropylphenyl)-7-fluoro-1-((1-methyl-1H-pyrazolo[4,3-b]pyridin-6-yl)oxy)-2,3-dihydro-1H-indene-4-carboxamide] | < 50 nM |
| Cn1ncc2ncc(N[C@H]3CCc4c(Nc5cc(C(C)(C)C(F)(F)F)on5)cccc43)nc21 [Compound 87, (S)—N′-(1-methyl-1H-pyrazolo[3,4-b]pyrazin-6-yl)-N^4-(5-(1,1,1-trifluoro-2-methylpropan-2-yl)isoxazol-3-yl)-2,3-dihydro-1H-indene-1,4-diamine] | < 50 nM |
| Cn1ncc2ncc(N[C@H]3CCc4c(C(=O)Nc5cccc(C6CC6)c5)cccc43)nc21 [Compound 88, (S)—N-(3-cyclopropylphenyl)-1-((1-methyl-1H-pyrazolo[3,4-b]pyrazin-6-yl)amino)-2,3-dihydro-1H-indene-4-carboxamide] | < 50 nM |
| Cn1cc2ncc(N[C@H]3CCc4c(Nc5cc(C(C)(C)C)on5)cccc43)cc2n1 [Compound 90, (S)—N^4-(5-(tert-butyl)isoxazol-3-yl)-N^1-(2-methyl-2H-pyrazolo[4,3-b]pyridin-6-yl)-2,3-dihydro-1H-indene-1,4-diamine] | < 50 nM |
| Cn1ncc2ncc(N[C@H]3CCc4c(Nc5cc(C(C)(C)C)on5)cccc43)cc21 [Compound 91a] | < 50 nM |
| Cn1ncc2ncc(N[C@H]3CCc4c(Nc5nc(C(C)(C)C)cs5)cccc43)cc21 [Compound 91b] | 50 to 200 nM |
| COCC(C)(C)c1cc(Nc2cccc3c2CC[C@@H]3Nc2cnc3cnn(C)c3c2)no1 [Compound 91c] | < 50 nM |
| Cn1ncc2ncc(N[C@H]3CCc4c(Nc5cc(C(C)(C)CO)on5)cccc43)cc21 [Compound 91d] | < 50 nM |
| CC(C)c1cc(Nc2cccc3c2CC[C@@H]3Nc2cnc3cnn(C)c3c2)no1 [Compound 91e] | < 50 nM |
| Cn1ncc2ncc(N[C@H]3CCc4c(Nc5ncc(C(C)(C)C)s5)cccc43)cc21 [Compound 91f] | < 50 nM |

| Compound | IC50 |
| --- | --- |
| Cn1ncc2ncc(N[C@H]3CCc4c(Nc5nc(C(C)(C)C)co5)cccc43)cc21 [Compound 91g] | 50 to 200 nM |
| Cn1cc2ncc(N[C@H]3CCc4c(Nc5ncc(C(C)(C)C)s5)cccc43)cc2n1 [Compound 91h] | < 50 nM |
| Cn1cc2ncc(N[C@H]3CCc4c(Nc5nc(C(C)(C)C)cs5)cccc43)cc2n1 [Compound 91i] | < 50 nM |
| Cn1cc2ncc(N[C@H]3CCc4c(Nc5cc(C(C)(C)C(F)(F)F)on5)cccc43)cc2n1 [Compound 91j] | < 50 nM |
| Cn1cc2ncc(N[C@H]3CCc4c(Nc5cc(C6(C)CCC6)on5)cccc43)cc2n1 [Compound 91k] | < 50 nM |
| Cn1cc2ncc(N[C@H]3CCc4c(Nc5cc(C6(C)CCCC6)on5)cccc43)cc2n1 [Compound 91l] | < 50 nM |
| Cn1cc2ncc(N[C@H]3CCc4c(Nc5cc(C6(C(F)(F)F)CC6)on5)cccc43)cc2n1 [Compound 91m] | < 50 nM |
| Cn1cc2ncc(N[C@H]3CCc4c(Nc5cc(C6(C(F)(F)F)CCC6)on5)cccc43)cc2n1 [Compound 91n] | < 50 nM |
| Cn1cc2ncc(N[C@H]3CCc4c(Nc5cc(C6(C(F)(F)F)CCCC6)on5)cccc43)cc2n1 [Compound 91o] | < 50 nM |
| Cn1cc2ncc(N[C@H]3CCc4c(Nc5cc(C67CC(C6)C7)on5)cccc43)cc2n1 [Compound 91r] | < 50 nM |
| Cn1cc2ncc(N[C@H]3CCc4c(Nc5cc(C67CC(F)(C6)C7)on5)cccc43)cc2n1 [Compound 91s] | < 50 nM |
| Cn1cc2ncc(N[C@H]3CCc4c(Nc5noc(C6(C)COC6)n5)cccc43)cc2n1 [Compound 92, (S)—N^1-(2-methyl-2H-pyrazolo[4,3-b]pyridin-6-yl)-N^4-(5-(3-methyloxetan-3-7)-1,2,4-oxadiazol-3-yl)-2,3-dihydro-1H-indene-1,4-d] | > 500 nM |
| Cn1ncc2ncc(N[C@H]3CCc4c(Nc5noc(C(C)(C)C)n5)cccc43)cc21 [Compound 93a] | < 50 nM |
| CN1CCC[C@@H]1c1nc(Nc2cccc3c2CC[C@@H]3Nc2cnc3cn(C)nc3c2)no1 [Compound 93b] | 50 to 200 nM |
| CN1CCC[C@H]1c1nc(Nc2cccc3c2CC[C@@H]3Nc2cnc3cn(C)nc3c2)no1 [Compound 93c] | 50 to 200 nM |
| Cn1cc2ncc(N[C@H]3CCc4c(Nc5noc(C6(C)CC6)n5)cccc43)cc2n1 [Compound 93d] | < 50 nM |
| Cn1cc2ncc(N[C@H]3CCc4c(Nc5noc(C6(CO)CC6)n5)cccc43)cc2n1 [Compound 93e] | 50 to 200 nM |
| Cn1cc2ncc(N[C@H]3CCc4c(Nc5noc(C(C)(C)C(F)(F)F)n5)cccc43)cc2n1 [Compound 93f] | < 50 nM |
| Cn1cc2ncc(N[C@H]3CCc4c(Nc5noc(C6(C(F)(F)F)CC6)n5)cccc43)cc2n1 [Compound 93g] | < 50 nM |

| Compound | IC50 |
| --- | --- |
| Cn1cc2ncc(N[C@H]3CCc4c(Nc5noc(C6(C(F)(F)F)CCC6)n5)cccc43)cc2n1 [Compound 93h] | < 50 nM |
| Cn1cc2ncc(N[C@H]3CCc4c(Nc5noc(C(C)(C)C)n5)cccc43)cc2n1 [Compound 93i] | < 50 nM |
| Cn1cc2ncc(N[C@H]3CCc4c(Nc5noc(C6CC6)n5)cccc43)cc2n1 [Compound 93j] | 200 to 500 nM |
| Cn1cc2ncc(N[C@H]3CCc4c(Nc5noc(C6CCCC6)n5)cccc43)cc2n1 [Compound 93k] | < 50 nM |
| Cn1cc2ncc(N[C@H]3CCc4c(Nc5noc(C6(C(F)(F)F)CCCC6)n5)cccc43)cc2n1 [Compound 93l] | < 50 nM |
| Cn1cc2ncc(N[C@H]3CCc4c(Nc5noc(C6(C)CCCC6)n5)cccc43)cc2n1 [Compound 93m] | < 50 nM |
| Cn1cc2ncc(N[C@H]3CCc4c(Nc5noc(C6(C)CCC6)n5)cccc43)cc2n1 [Compound 93n] | < 50 nM |
| Cn1cc2ncc(N[C@H]3CCc4c(Nc5noc(C(C)(C)CF)n5)cccc43)cc2n1 [Compound 93o] | < 50 nM |
| Cn1cc2ncc(N[C@H]3CCc4c(Nc5noc(C(F)(F)F)n5)cccc43)cc2n1 [Compound 93p] | > 500 nM |
| Cn1cc2ncc(N[C@H]3CCc4c(Nc5noc(C67CC(C6)C7)n5)cccc43)cc2n1 [Compound 93q] | < 50 nM |
| Cn1cc2ncc(N[C@H]3CCc4c(Nc5noc(C67CC(F)(C6)C7)n5)cccc43)cc2n1 [Compound 93r] | < 50 nM |
| CN(c1cnc2cnn(C)c2c1)[C@H]1CCc2c(Nc3cc(C(C)(C)C)on3)cccc21 [Compound 94, (S)—N^4-(5-(tert-butyl)isoxazol-3-yl)-N^1-methyl-N^1-(1-methyl-1H-pyrazolo[4,3-b]pyridin-6-yl)-2,3-dihydro-1H-indene-1,4-diamine] | 200 to 500 nM |
| Cn1ncc2ncc(O[C@H]3CCc4c(Nc5cc(C(C)(C)C)on5)cccc43)cc21 [Compound 95, (S)-5-(tert-butyl)-N-(1-((1-methyl-1H-pyrazolo[4,3-b]pyridin-6-yl)oxy)-2,3-dihydro-1H-inden-4-yl) isoxazol-3-amine] | 200 to 500 nM |
| Cn1cc2ncc(N[C@H]3CCc4c(CNc5cccc(C6CC6)c5)cccc43)cc2n1 [Compound 96a] | 50 to 200 nM |
| Cc1cccc(NCc2cccc3c2CC[C@@H]3Nc2cnc3cn(C)nc3c2)c1 [Compound 96b] | 50 to 200 nM |
| Cn1cc2ncc(N[C@H]3CCc4c(CNc5cccc(F)c5)cccc43)cc2n1 [Compound 96c] | > 500 nM |
| Cn1cc2ncc(N[C@H]3CCc4c(CNc5nc(C6CC6)cs5)cccc43)cc2n1 [Compound 96d] | > 500 nM |
| O=C(Nc1cccc(C2CC2)c1)c1cccc2c1CC[C@@H]2Nc1cnc2cn[nH]c2c1 [Compound 97, (S)-1-((1H-pyrazolo[4,3-b]pyridin-6-yl)amino)-N-(3-cyclopropylphenyl)-2,3-dihydro-1H-indene-4-carboxamide] | < 50 nM |
